Laboratory results: ChEMBL document CHEMBL3112589, “Structure-activity relationships of diamine inhibitors of cytochrome P450 (CYP) 3A as novel pharmacoenhancers, part I: core region” (Bioorg Med Chem Lett, 2014)
pEC50, pIC50: −log10 of the molar value.

Tests used:
[1] = tested on: Human immunodeficiency virus 1; assay: Antiviral activity against HIV1 by cell based assay; format: functional, organism-based
Cytochrome P450 1A2 = molecular target: T1, Cytochrome P450 1A2 (Homo sapiens, UniProt P05177); assay: Inhibition of human CYP1A2
T1 sequence (P05177 whole entry): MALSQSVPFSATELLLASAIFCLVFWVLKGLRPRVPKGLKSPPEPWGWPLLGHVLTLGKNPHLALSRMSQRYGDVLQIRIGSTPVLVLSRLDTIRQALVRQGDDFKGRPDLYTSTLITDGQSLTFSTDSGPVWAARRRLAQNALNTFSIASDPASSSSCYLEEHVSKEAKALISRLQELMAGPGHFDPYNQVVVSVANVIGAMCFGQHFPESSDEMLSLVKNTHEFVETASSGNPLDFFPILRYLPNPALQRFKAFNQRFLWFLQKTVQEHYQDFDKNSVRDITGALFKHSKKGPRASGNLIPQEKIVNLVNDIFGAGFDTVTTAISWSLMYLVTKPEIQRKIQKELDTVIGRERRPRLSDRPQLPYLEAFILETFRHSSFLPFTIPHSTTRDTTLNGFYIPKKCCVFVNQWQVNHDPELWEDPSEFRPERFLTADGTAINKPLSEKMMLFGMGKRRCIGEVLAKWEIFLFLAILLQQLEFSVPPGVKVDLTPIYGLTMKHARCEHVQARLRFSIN

Cytochrome P450 2C9 = Cytochrome P450 2C9 (Homo sapiens, UniProt P11712); assay: Inhibition of human CYP2C9
Chain of Cytochrome P450 2C9 (P11712 whole entry): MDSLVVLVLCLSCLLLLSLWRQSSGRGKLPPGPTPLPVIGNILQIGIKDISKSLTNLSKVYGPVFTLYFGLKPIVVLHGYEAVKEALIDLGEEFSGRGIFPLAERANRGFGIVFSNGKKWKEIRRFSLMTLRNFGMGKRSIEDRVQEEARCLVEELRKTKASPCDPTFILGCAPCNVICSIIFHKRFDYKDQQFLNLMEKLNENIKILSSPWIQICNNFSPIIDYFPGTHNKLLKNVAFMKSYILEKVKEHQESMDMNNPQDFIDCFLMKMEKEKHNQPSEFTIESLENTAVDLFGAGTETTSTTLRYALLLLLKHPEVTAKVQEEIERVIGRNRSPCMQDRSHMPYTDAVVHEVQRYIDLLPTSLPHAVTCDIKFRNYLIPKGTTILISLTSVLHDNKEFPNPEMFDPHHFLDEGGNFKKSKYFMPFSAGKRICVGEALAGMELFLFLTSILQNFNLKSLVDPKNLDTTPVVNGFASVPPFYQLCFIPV

Cytochrome P450 2C19 = Cytochrome P450 2C19 (Homo sapiens, UniProt P33261); assay: Inhibition of human CYP2C19
Chain of Cytochrome P450 2C19 (P33261 whole entry): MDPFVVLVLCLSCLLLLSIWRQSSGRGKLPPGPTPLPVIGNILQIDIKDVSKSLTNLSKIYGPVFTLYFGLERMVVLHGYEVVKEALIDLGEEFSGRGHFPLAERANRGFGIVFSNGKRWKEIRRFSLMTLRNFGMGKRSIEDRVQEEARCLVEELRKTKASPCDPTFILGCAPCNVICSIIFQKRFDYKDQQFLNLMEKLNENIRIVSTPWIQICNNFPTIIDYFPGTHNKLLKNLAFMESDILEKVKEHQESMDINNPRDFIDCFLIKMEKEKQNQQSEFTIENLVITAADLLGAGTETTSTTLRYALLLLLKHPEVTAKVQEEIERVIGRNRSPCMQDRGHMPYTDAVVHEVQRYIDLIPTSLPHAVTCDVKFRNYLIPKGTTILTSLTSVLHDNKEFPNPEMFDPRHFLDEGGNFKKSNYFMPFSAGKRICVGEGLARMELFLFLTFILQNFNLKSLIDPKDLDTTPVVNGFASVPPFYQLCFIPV

Cytochrome P450 3A4 = Cytochrome P450 3A4 (Homo sapiens, UniProt P08684); assay: Inhibition of human CYP3A4-mediated midazolam 1'-hydroxylase activity
Chain of Cytochrome P450 3A4 (P08684 whole entry): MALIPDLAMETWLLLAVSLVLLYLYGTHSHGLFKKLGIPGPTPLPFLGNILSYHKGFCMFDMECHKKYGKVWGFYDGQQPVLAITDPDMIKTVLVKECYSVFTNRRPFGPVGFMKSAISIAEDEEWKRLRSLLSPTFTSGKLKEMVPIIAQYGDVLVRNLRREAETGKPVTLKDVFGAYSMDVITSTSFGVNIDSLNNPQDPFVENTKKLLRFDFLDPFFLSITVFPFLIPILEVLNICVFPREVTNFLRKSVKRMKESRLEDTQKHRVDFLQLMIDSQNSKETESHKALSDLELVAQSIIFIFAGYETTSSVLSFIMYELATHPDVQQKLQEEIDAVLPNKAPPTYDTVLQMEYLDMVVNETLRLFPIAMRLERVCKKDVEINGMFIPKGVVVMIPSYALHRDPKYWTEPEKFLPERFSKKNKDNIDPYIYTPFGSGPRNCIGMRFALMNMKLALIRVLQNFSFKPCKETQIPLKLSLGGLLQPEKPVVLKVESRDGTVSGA

Cytochrome P450 2D6 = Cytochrome P450 2D6 (Homo sapiens, UniProt P10635); assay: Inhibition of human CYP2D6
Chain of Cytochrome P450 2D6 (P10635 whole entry): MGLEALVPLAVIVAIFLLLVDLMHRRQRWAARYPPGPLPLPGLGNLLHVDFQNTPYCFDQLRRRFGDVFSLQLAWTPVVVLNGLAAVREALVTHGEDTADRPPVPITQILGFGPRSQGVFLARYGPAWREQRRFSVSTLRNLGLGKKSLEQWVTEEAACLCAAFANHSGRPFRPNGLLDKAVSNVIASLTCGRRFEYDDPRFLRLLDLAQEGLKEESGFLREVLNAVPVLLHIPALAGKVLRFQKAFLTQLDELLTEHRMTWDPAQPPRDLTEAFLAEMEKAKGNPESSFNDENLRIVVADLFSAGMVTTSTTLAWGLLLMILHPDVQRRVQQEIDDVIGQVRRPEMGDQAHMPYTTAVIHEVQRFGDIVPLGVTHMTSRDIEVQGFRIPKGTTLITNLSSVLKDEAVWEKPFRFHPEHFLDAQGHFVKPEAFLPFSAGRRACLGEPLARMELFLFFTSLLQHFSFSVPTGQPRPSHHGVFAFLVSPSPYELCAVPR

Protease = Protease (Human immunodeficiency virus 1, UniProt Q9YQ12); assay: Inhibition of HIV-1 protease
Chain of Protease (Q9YQ12 whole entry): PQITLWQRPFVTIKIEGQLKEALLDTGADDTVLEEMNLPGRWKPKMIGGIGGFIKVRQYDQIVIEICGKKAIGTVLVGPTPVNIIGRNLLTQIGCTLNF

Structure (SMILES)	pEC50 [1]	pIC50 (Cytochrome P450 1A2)	pIC50 (Cytochrome P450 2C9)	pIC50 (Cytochrome P450 2C19)	pIC50 (Cytochrome P450 3A4)	pIC50 (Cytochrome P450 2D6)	pIC50 (Protease)
CC(C)c1nc(CN(C)C(=O)N[C@H](C(=O)NCCCCNC(=O)OCc2cncs2)C(C)C)cs1	< 4.52	–	–	–	–	–	–
CC(C)c1nc(CN(C)C(=O)N[C@H](C(=O)N[C@H](CC[C@H](Cc2ccccc2)N(C)C(=O)OCc2cncs2)Cc2ccccc2)C(C)C)cs1	6.06	–	–	–	–	–	–
CC(C)c1nc(CN(C)C(=O)N[C@H](C(=O)N[C@H](CCN(Cc2ccccc2)C(=O)OCc2cncs2)Cc2ccccc2)C(C)C)cs1	< 4.52	< 4.60	< 4.60	< 4.60	6.49	6.05	–
CC(C)c1nc(CN(C)C(=O)N[C@H](C(=O)N[C@H](/C=C/[C@H](Cc2ccccc2)NC(=O)OCc2cncs2)Cc2ccccc2)C(C)C)cs1	4.96	–	–	–	6.82	–	–
CC(C)c1nc(CN(C)C(=O)N[C@H](C(=O)NCCCNC(=O)OCc2cncs2)C(C)C)cs1	< 4.52	–	–	–	–	–	–
CC(C)c1nc(CN(C)C(=O)N[C@H](C(=O)NC2CCN(C(=O)OCc3cncs3)CC2)C(C)C)cs1	5.05	–	–	–	5.78	–	–
CC(C)c1nc(CN(C)C(=O)N[C@H](C(=O)N[C@H](CC(=O)[C@H](Cc2ccccc2)NC(=O)OCc2cncs2)Cc2ccccc2)C(C)C)cs1	5.78	–	–	–	–	–	–
CC(C)c1nc(CN(C)C(=O)N[C@H](C(=O)N[C@@H](Cc2ccccc2)[C@H](Cc2ccccc2)NC(=O)OCc2cncs2)C(C)C)cs1	< 4.52	4.64	< 4.60	5.06	–	5.64	< 4.52
CC(C)c1nc(CN(C)C(=O)N[C@H](C(=O)N(CCCN(Cc2ccccc2)C(=O)OCc2cncs2)Cc2ccccc2)C(C)C)cs1	< 4.52	–	–	–	6.52	–	4.68
CC(C)CN(CC[C@H](Cc1ccccc1)NC(=O)[C@H](CCN1CCOCC1)NC(=O)N(C)Cc1csc(C(C)C)n1)C(=O)OCc1cncs1	< 4.52	–	–	–	–	–	< 4.52
CC[C@@H](CC[C@H](CC)NC(=O)[C@@H](NC(=O)N(C)Cc1csc(C(C)C)n1)C(C)C)NC(=O)OCc1cncs1	< 4.52	–	–	–	–	–	< 4.52
CC(C)c1nc(CN(C)C(=O)N[C@H](C(=O)N[C@@H](C)CC[C@H](C)NC(=O)OCc2cncs2)C(C)C)cs1	< 4.52	–	–	–	–	–	< 4.52
CC(C)c1nc(CN(C)C(=O)N[C@H](C(=O)N[C@@H](Cc2ccccc2)C[C@H](O)[C@H](Cc2ccccc2)NC(=O)OCc2cncs2)C(C)C)cs1 [RITONAVIR]	7.82	–	–	–	–	–	–
CC(C)c1nc(CN(C)C(=O)N[C@H](C(=O)N[C@@H](Cc2ccccc2)[C@H]2OC(C)(C)O[C@@H]2[C@H](Cc2ccccc2)NC(=O)OCc2cncs2)C(C)C)cs1	< 4.52	–	–	–	6.51	–	–
CC(C)c1nc(CN(C)C(=O)N[C@H](C(=O)N[C@@H](CC[C@@H](Cc2ccccc2)NC(=O)OCc2cncs2)Cc2ccccc2)C(C)C)cs1	< 4.52	5.00	4.86	< 5.30	–	6.40	< 4.52
CC(C)c1nc(CN(C)C(=O)N[C@@H](CCN2CCOCC2)C(=O)N[C@H](CCN(Cc2ccccc2Cl)C(=O)OCc2cncs2)Cc2ccccc2)cs1	< 4.52	–	–	–	–	–	< 4.52
CC(C)c1nc(CN(C)C(=O)N[C@@H](CCN2CCOCC2)C(=O)N[C@H](CCN(Cc2ccc(Cl)cc2)C(=O)OCc2cncs2)Cc2ccccc2)cs1	< 4.52	–	–	–	–	–	< 4.52
CC(C)c1nc(CN(C)C(=O)N[C@H](C(=O)N(CCCCN(Cc2ccccc2)C(=O)OCc2cncs2)Cc2ccccc2)C(C)C)cs1	< 4.52	< 4.60	5.47	5.82	6.62	5.96	4.64
CC(C)c1nc(CN(C)C(=O)N[C@H](C(=O)N[C@H](CC[C@H](Cc2ccccc2)NC(=O)OCc2cncs2)Cc2ccccc2)C(C)C)cs1	6.54	< 4.60	5.17	5.03	–	5.54	8.30
CC(C)c1nc(CN(C)C(=O)N[C@H](C(=O)NCCNC(=O)OCc2cncs2)C(C)C)cs1	< 4.52	–	–	–	–	–	–
CC(C)c1nc(CN(C)C(=O)N[C@H](C(=O)N[C@H](CCNNC(=O)OCc2cncs2)Cc2ccccc2)C(C)C)cs1	< 4.52	–	–	–	–	–	5.06
CC(C)c1nc(CN(C)C(=O)N[C@@H](CCN2CCOCC2)C(=O)N[C@H](CCN(Cc2ccccc2)C(=O)OCc2cncs2)Cc2ccccc2)cs1	< 4.52	< 4.60	5.09	5.17	–	5.89	< 4.52
CCC[C@@H](CC[C@H](Cc1ccccc1)NC(=O)OCc1cncs1)NC(=O)[C@@H](NC(=O)N(C)Cc1csc(C(C)C)n1)C(C)C	6.26	–	–	–	–	–	–
CCC[C@@H](CC[C@H](Cc1ccccc1)NC(=O)[C@@H](NC(=O)N(C)Cc1csc(C(C)C)n1)C(C)C)NC(=O)OCc1cncs1	5.77	–	–	–	–	–	–
CC(C)c1nc(CN(C)C(=O)N[C@@H](CCN2CCOCC2)C(=O)NC(Cc2ccccc2)CN(Cc2ccccc2)C(=O)OCc2cncs2)cs1 (stereo not given in full)	< 4.52	–	–	–	–	–	< 4.52
CC(C)c1nc(CN(C)C(=O)N[C@H](C(=O)N2CCC(NC(=O)OCc3cncs3)CC2)C(C)C)cs1	5.40	–	–	–	–	–	–
CC(C)c1nc(CN(C)C(=O)N[C@H](C(=O)N[C@H](CCN(Cc2ccccc2)NC(=O)OCc2cncs2)Cc2ccccc2)C(C)C)cs1	6.42	–	–	–	–	–	7.52
CC(C)c1nc(CN(C)C(=O)N[C@H](C(=O)N(C)[C@H](CC[C@H](Cc2ccccc2)NC(=O)OCc2cncs2)Cc2ccccc2)C(C)C)cs1	6.14	–	–	–	–	–	–
CC(C)c1nc(CN(C)C(=O)N[C@H](C(=O)N2CCN(C(=O)OCc3cncs3)CC2)C(C)C)cs1	< 4.52	–	–	–	5.85	–	–
CC(C)CN(CC[C@H](Cc1ccccc1)NC(=O)OCc1cncs1)C(=O)[C@H](CCN1CCOCC1)NC(=O)N(C)Cc1csc(C(C)C)n1	< 4.52	< 4.60	< 4.60	< 4.60	–	5.09	< 4.52
